This note sets out measurements from ChEMBL document CHEMBL3352159, “Protolichesterinic acid derivatives: α-methylene-γ-lactones as potent dual activators of PPARγ and Nrf2 transcriptional factors” (Bioorg Med Chem Lett, 2014).

The nature of experiment [1]: Cytotoxicity against human A375M cells after 4 days by MTT assay. In kind it is functional, cell-based. Particulars: 96 h.
The test system of experiment [2] is Peritoneal macrophage cell. Description: Induction of Dectin-1 mRNA expression in mouse peritoneal macrophages isolated from PPARgamma -/- mouse treated at 1 uM for 5 hrs by qRT-PCR analysis. In kind it is functional, cell-based. On the technique in general: In qPCR the cycle at which signal appears reflects the starting amount.
Experiment [3] deals with Peritoneal macrophage cell. Description: Induction of Dectin-1 mRNA expression in mouse peritoneal macrophages isolated from PPARgamma -/- mouse treated at 5 uM for 5 hrs by qRT-PCR analysis. In kind it is functional, cell-based.
In experiment [4] the target is T1, Peroxisome proliferator-activated receptor gamma (Mus musculus) (UniProt P37238).
T1 sequence (whole entry): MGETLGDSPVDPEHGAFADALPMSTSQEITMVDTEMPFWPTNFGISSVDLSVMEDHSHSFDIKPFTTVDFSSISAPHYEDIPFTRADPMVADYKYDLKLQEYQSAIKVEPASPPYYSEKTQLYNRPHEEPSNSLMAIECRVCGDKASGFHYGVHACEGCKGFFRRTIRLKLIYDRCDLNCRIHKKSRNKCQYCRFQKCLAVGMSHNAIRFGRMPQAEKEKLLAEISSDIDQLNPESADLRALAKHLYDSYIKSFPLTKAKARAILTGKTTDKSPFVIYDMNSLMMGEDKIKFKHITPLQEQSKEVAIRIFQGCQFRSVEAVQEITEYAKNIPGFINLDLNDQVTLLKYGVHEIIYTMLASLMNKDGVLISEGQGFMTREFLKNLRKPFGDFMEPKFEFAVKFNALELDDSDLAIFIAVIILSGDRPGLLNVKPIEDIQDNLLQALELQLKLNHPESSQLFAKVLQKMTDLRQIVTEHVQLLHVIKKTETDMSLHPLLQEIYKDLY
Description: Activation of PPARgamma in mouse peritoneal macrophages assessed as increase in CD36 mRNA expression treated for 5 hrs by qRT-PCR analysis.

The test system of experiment [5] is Peritoneal macrophage cell. Description: Induction of NQO-1 mRNA expression in mouse peritoneal macrophages isolated from PPARgamma -/- mouse treated at 1 uM for 5 hrs by qRT-PCR analysis. In kind it is functional, cell-based.
The test system of experiment [6] is Peritoneal macrophage cell. Description: Induction of HO-1 mRNA expression in mouse peritoneal macrophages isolated from PPARgamma -/- mouse treated at 1 uM for 5 hrs by qRT-PCR analysis. In kind it is functional, cell-based.
Experiment [7] addresses T1, Peroxisome proliferator-activated receptor gamma (Mus musculus). Description: Activation of PPARgamma in mouse peritoneal macrophages assessed as increase in Dectin-1 mRNA expression treated for 5 hrs by qRT-PCR analysis.
In experiment [8] the target is Nuclear factor erythroid 2-related factor 2 (Mus musculus) (UniProt Q60795). Description: Activation of Nrf2 in mouse peritoneal macrophages assessed as increase in HO-1 mRNA expression treated for 5 hrs by qRT-PCR analysis.
Nuclear factor erythroid 2-related factor 2 (Mus musculus), sequence (Q60795 whole entry, looked up): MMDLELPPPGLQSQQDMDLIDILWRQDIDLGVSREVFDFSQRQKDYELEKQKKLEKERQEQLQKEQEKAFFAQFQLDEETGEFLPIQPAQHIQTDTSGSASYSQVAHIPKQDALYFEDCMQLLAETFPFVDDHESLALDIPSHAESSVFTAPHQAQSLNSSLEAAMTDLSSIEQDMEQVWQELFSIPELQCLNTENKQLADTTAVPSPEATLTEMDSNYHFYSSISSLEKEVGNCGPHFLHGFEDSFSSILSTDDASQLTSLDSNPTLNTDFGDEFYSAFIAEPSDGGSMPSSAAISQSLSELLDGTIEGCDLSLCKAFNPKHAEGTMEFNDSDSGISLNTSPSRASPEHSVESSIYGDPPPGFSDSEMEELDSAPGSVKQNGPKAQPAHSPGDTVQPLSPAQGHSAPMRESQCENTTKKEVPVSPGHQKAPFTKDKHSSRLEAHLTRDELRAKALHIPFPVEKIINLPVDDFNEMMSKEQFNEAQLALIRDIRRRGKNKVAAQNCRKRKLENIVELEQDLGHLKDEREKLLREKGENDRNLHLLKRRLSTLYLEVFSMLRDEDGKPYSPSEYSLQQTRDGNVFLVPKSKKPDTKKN
Experiment [9] in a line: Cytotoxicity against mouse peritoneal macrophages after 24 hrs. In kind it is cell-based. Particulars: Peritoneal macrophage cell.
The target in experiment [10] is Nuclear factor erythroid 2-related factor 2 (Mus musculus) (UniProt Q60795). Description: Activation of Nrf2 in mouse peritoneal macrophages assessed as increase in NQO-1 mRNA expression treated for 5 hrs by qRT-PCR analysis.
The subject of experiment [11] is Peritoneal macrophage cell. Description: Induction of CD36 mRNA expression in mouse peritoneal macrophages isolated from PPARgamma -/- mouse treated at 1 uM for 5 hrs by qRT-PCR analysis. In kind it is functional, cell-based.

The source made the active and inactive calls. No cut-off for these calls is given here.

By IC50 is commonly meant the concentration needed to halve the response being measured. The low end stands for higher potency, the high end for lower potency. `C=C1C(=O)OC(CCCCCCCCCCCCC)C1CC` (mixture of isomers) had an IC50 in experiment [1] of 4.1 µM.

In turn, `C=C1C(=O)OC(CCc2ccccc2)C1CCc1ccccc1` (stereo unspecified) showed an IC50 in experiment [1] of 2.7 µM.

`C=C1C(=O)OC(c2ccccc2)C1c1ccccc1` (mixture of isomers) returned an IC50 in experiment [1] of 6.3 µM.

`C=C1CC(CCCCCCCCCCCCC)OC1=O` (stereo unspecified): the 50% inhibitory concentration (IC50) in experiment [1] was 3.9 µM.

In experiment [1], `C=C1C(=O)OC(c2ccccc2)C1CCc1ccccc1` (mixture of isomers) returned an IC50 of 2.8 µM.

Turning to `C=C1CC(CCCC)OC1=O` (stereo unspecified), the result in experiment [2], in experiment [3], in experiment [5], in [6] and in [11] was inactive. The result in [4], in [7], in experiment [8] and in [10] was Active. Besides, the IC50 in experiment [9] came to 31.2 µM; in [1], 17.3 µM.

With `C=C1C(=O)O[C@@H](CCCCCCCCCCCCC)[C@@H]1C(=O)O` [PROTOLICHESTERINIC ACID], half-maximal inhibition in experiment [1] (IC50) required 8.6 µM.

Take `C=C1CC(c2ccccc2)OC1=O` (stereo unspecified): 6.7 µM corresponded to half-maximal inhibition in [1] (IC50).

Compound `C=C1C(=O)OC(CCCC)C1CCc1ccccc1` (stereo unspecified) showed a concentration for half-maximal inhibition (IC50) in experiment [1] of 5.5 µM.

Compound `C=C1C(=O)OC(CCCCCCCCCCCCC)C1CCc1ccccc1` (mixture of isomers) came in with an IC50 in experiment [1] of 3.3 µM.

In the case of `CN(CCOc1ccc(CC2SC(=O)NC2=O)cc1)c1ccccn1` (stereo unspecified), the outcome in experiment [2] and in [3] was inactive. For the same compound, the outcome in [7] was Active.

As for `CCCCCCCCCCCCCC1C=C(C)C(=O)O1` (racemic), the result in [2] and in experiment [3] was inactive. Besides, the outcome in experiment [7] was Active. Besides, the IC50 in [9] and in experiment [1] was above 100 µM each time.

Consider `CCCCCCCCCCCCC[C@H]1OC(=O)C(C)=C1C(=O)O`, for which the result in experiment [2] and in experiment [3] was inactive. Moreover, the result in [7] was Active. Besides, the IC50 is above 100 µM in experiment [9] and 72 µM in [1].

`C=C1C(=O)OC(c2ccccc2)C1CCCC` (mixture of isomers): the result in experiment [2], in experiment [3], in experiment [5], in [6] and in experiment [11] was inactive. For the same compound, the result in experiment [4], in [7], in experiment [8] and in [10] was Active. The IC50 in experiment [9] turned out to be 12.7 µM; in experiment [1], 7.8 µM.

The compound `C=C1CC(CCc2ccccc2)OC1=O` (stereo unspecified) returned an IC50 in experiment [1] of 8.7 µM.

In experiment [1], `C=C1C(=O)OC(CCc2ccccc2)C1CCCC` (mixture of isomers) returned an IC50 of 5 µM.
